Entries after “also recorded” stand apart in the source; their conditions may differ. One block for each molecule: values may come before it.
What was measured:
[1] = system: hilar EPSPs (dentate gyrus of the hippocampus)
Protocol: Male Long-Evans rats (250-350 g) were anesthetized by pentobarbital (60 mg/kg, i.p.) and maintained under anesthesia by pentobarbital infusion (2-4 mg·kg-^1·h^−1). Under anesthesia, animals were placed in a stereotaxic frame and small holes were drilled into the skull of the left hemisphere to allow the positioning of a stimulating electrode (−7.8 to −8.1 AP; 4.2 to 4.4 ML) and a recording electrode (−3.0 to −3.3 AP; 1.6 to 2.2 ML). A monopolar stainless-steel stimulating electrode (175 μm, insulated with Formvar) was lowered into the perforant path together with a platinum/iridium recording electrode (75 μm) into the hilus of the dentate gyms of the hippocampus. The current used to elicit an evoked potential was adjusted to produce a response size 50-60% of the maximal spike-free amplitude. Evoked hilar EPSPs were recorded in response to single-pulse stimulation delivered at a frequency of one pulse per 20 s.
Data acquisition and analysis was performed using commercially available software (NAC and NACSHOW).

BDNF = BDNF ELISA of cortical tissue 7 d after stroke; format: in vivo, mouse; details: treatment from day 5, CX1837 1 mg/kg, CX1739 3 mg/kg, vs stroke plus vehicle
Protocol: (§1) Tissue was collected from around the stroke site from stroke plus vehicle, stroke plus CX1837 (1 mg/kg), and stroke plus CX1739 (3 mg/kg), and control groups 7 d after stroke. Cortical tissue was dissected in a 1 mm radius around the stroke infarct core, including the core itself, and flash frozen on dry ice.
Equal volumes of tissue were homogenized in […] of homogenization buffer [Complete Protease Inhibitor Tablet (Invitrogen), 1 mM phenylmethylsulfonylfluoride, 50 mM Tris-HCl, 5 mM EDTA, 10 mM EGTA, 1% Triton X-100] for ˜1 min. Tissue and homogenization buffer were incubated on ice for 30 min, followed by a 5 min spin at 14,000 rpm. The supernatant was collected and total protein concentrations were determined using the DC Protein Assay (Bio-Rad). BDNF was measured using the BDNF ELISA Emax Immunoassay System (Promega) as per the manufacturer's instructions. BDNF levels were determined relative to a standard curve constructed from measures of kit-supplied BDNF protein standards (0-500 pg of BDNF protein) that were assayed simultaneously with the experimental samples. BDNF levels are expressed as picograms of BDNF per 100 μg of sample protein.

[2] = system: focal stroke in forelimb motor cortex; assay: Grid-walking task (footfaults) after photothrombotic focal stroke; format: in vivo, mouse; details: for number of forelimb footfaults / function of impaired forelimb, grid-walking: i.p. twice daily from 5 d after stroke for 6 weeks, CX1837 0.33 or 1 mg/kg, CX1739 3 or 30 mg/kg, CFM2 50 μmol/kg, vs stroke plus vehicle
Protocol: (§2) Focal stroke was induced by photothrombosis in adult male C57BL/6 mice weighing 20-25 g as previously described (Clarkson et al. (2010) Nature 468: 305-309).
(§3) CX1837 (0.33 and 1 mg/kg) and CX1739 (3 and 30 mg/kg) were dissolved in 30% hydroxypropyl_β-cyclodextran (HPCD) (made 1:1 in 0.9% saline and distilled H2O) and administered intraperitoneally twice daily starting 5 d after stroke for a period of 6 weeks. The AMPAR antagonist CFM2 ([…]) (De Sarro et al. (1999) Eur. J. Pharmacol., 368: 149-159) was administered intraperitoneally twice daily for 6 weeks.
A hyaluronan/heparin sulfate proteoglycan biopolymer hydrogel (Extracel-HP, a.k.a., HYSTEM®-HP; BioTime,) was used to locally deliver TrkB-Fc (5 μg/ml) and human IgG-Fc (antibody and vehicle control) to the periinfarct cortex (Li et al. (2010) Nat. Neurosci. 13: 1496-1504). This hydrogel was chosen because it is composed of naturally occurring brain extracellular matrix constituents; remains liquid for a period after mixing so that it can be injected into the brain through a small, minimally invasive needle; and will gel within the stroke cavity, conforming to the boundaries of this cavity. We have shown that this hydrogel releases small and large proteins for up to 4 weeks from the infarct cavity after stroke. Five days after stroke, 10 μl of Extracel-HP (HYSTEM®-HP), impregnated with TrkB-Fc (5 μg/ml) or human IgG-Fc (vehicle), was injected directly into the stroke infarct cavity using a 30 gauge needle attached to a Hamilton syringe. Extracel-HP was prepared according to the manufacturer's instructions. […]
(§4) Animals were tested once on both the grid-walking and cylinder tasks, 1 week before surgery to establish baseline performance levels. For the reaching task, mice were trained for a period of 14 d and subsequently tested on day 15 to establish a baseline reading. […] Behaviors were scored by observers who were blind to the treatment group of the animals in the study as previously described (Clarkson et al. (2010) Nature 468: 305-309). […]

[3] = system: focal stroke in forelimb motor cortex; assay: Spontaneous-forelimb (cylinder) task after photothrombotic focal stroke; format: in vivo, mouse; details: i.p. twice daily from 5 d after stroke for 6 weeks; CX1837 0.33 or 1 mg/kg, CX1739 3 or 30 mg/kg; vs stroke plus vehicle
Protocol: as §2, §3
A hyaluronan/heparin sulfate proteoglycan biopolymer hydrogel (Extracel-HP, a.k.a., HYSTEM®-HP; BioTime,) was used to locally deliver TrkB-Fc (5 μg/ml) and human IgG-Fc (antibody and vehicle control) to the periinfarct cortex (Li et al. (2010) Nat. Neurosci. 13: 1496-1504). […]
as §4

TrkB = assay: TrkB/p-Trk immunoblotting of cortical tissue 7 d after stroke; format: in vivo, mouse; details: CX1837 1 mg/kg, CX1739 3 mg/kg, vs stroke plus vehicle
Protocol: as §1
For immunoblotting experiments, protein (10 μg) was loaded onto a 12% SDS-polyacrylamide gel, subjected to electrophoresis, and transferred to a pure nitrocellulose membrane (GE Healthcare). The membrane was blocked in 10% nonfat milk and probed with polyclonal antibodies specific for anti-TrkB (1:1000; Santa Cruz Biotechnology) and anti-p-Trk (1:5000; Santa Cruz Biotechnology). The blots were incubated with peroxidase-labeled anti-rabbit IgG (1:2000; Vector Laboratories) and immunoreactive proteins were visualized using enhanced chemiluminescence (GE Healthcare). β-Actin was used as a loading control (1:5000; Abcam). Optical density (OD) was determined using the NIH ImageJ software. Pixel intensities were converted to OD using the calibration curve of the software, and background-subtracted values were expressed as OD/[…] total protein.

[4] = CFM2 50 μmol/kg i.p. bid; cited from earlier work
[5] = system: focal stroke in forelimb motor cortex; assay: Single-pellet skilled-reaching task after stroke; format: in vivo, mouse; details: CFM2 50 μmol/kg i.p. bid from 5 d after stroke
Protocol: For loss-of-function studies assessing CFM2, the single-pellet skilled-reaching task was used (Conner et al. (2005) Neuron 46: 173-179). Before stroke, animals were trained for […] to successfully reach and retrieve 20 mg sugar pellets (Bio-Serv). A three lane Plexiglas reaching apparatus (30 cm deep, 10 cm wide, and 30 cm high for each lane) was constructed to allow simultaneous recording of three animals. Each lane consists of two 5 mm slots situated against the front-right and front-left walls of the chamber to force the mouse the reach for the pellets using either their right or left forepaws. A 5-mm-thick plastic shelf was mounted 15 mm from the floor at the front of the box.
During the training period, mice were fasted to 90% of their body weight and maintained at this level for the full 3 week training period. […]
All mice were fasted the night before testing. Pellets were presented one at a time and reaches were recorded with a Canon VIXIA HV30 video recorder. […] If an animal reached through the slot and obtained/grasped a food pellet and brought the pellet back through the slot, the reach was scored as a success. If an animal knocked the pellet away or dropped the pellet after grasping it, the reach was scored as a miss. The performance of each mouse was scored as follows: percentage success[…](number of successful retrievals/15)*100.

- crossing of the blood-brain barrier when given systemically ([1]; rat, in vivo, ip): cross the blood-brain barrier
Molecule: CN(C(=O)c1ccc2nonc2c1)C1CCOCC1 [CX1739]
- excitability ceiling of the EPSP amplitude effect (dose) ([1]; i.p., anesthetized rats): 10 mg/kg
- BDNF levels in periinfarct cortex (BDNF): did not change the level of BDNF expression
- number of forelimb footfaults / function of impaired forelimb, grid-walking [2]: small decrease in the number of footfaults; also recorded: small yet non-significant decrease in the number of footfaults
- forelimb asymmetry (left/right ratio), cylinder task [3]: small increase in the use of the right-impaired forelimb; also recorded: did not result in a decrease in the left/ratio
- TrkB phosphorylation in periinfarct cortex (TrkB): did not change the level of TrkB phosphorylation

Molecule: COc1cc2c(cc1OC)C(c1ccc(N)cc1)=NNC(=O)C2 [CFM2]
- general behavioral side effects (reduced motor activity, impaired grooming, weight loss) [4]: did not produce general behavioral side effects
- successful pellet retrieval with impaired right forelimb [5]: significant impairment in the ability to retrieve pellets successfully out to 2 weeks after stroke; also recorded: decrease in the number of pellets successfully retrieved
- number of forelimb footfaults / function of impaired forelimb, grid-walking [2]: significant impairment in the normal gain of motor function; also recorded: significant increase in the number of footfaults

B1: brain derived neurotrophic factor (protein)
chain: HSDPARRGELSVCDSISEWVTAADKKTAVDMSGGTVTVLEKVPVSKGQLKQYFYETKCNPMGYTKEGCRGIDKRHWNSQCRTTQSYVRALTMDSKKRIGWRFIRIDTSCVCTLTIKRGR
notes: growth factor, delivered through HYSTEM-C from 7 days after stroke
- forelimb footfaults / functional recovery with hydrogel-delivered BDNF ([2]; injected 7 days after stroke, 4 weeks after injection, 5 weeks after stroke): significant improvements in functional recovery

— US9700596B2, “Locally released growth factors to mediate motor recovery after stroke” (The Regents of the University of California, priority 2011, dated 2017)
